Results published in patent publication US10035800B2 (AbbVie Inc., priority 2013, dated 2018).

Tests used:
BRD4 (BDII_E352-M457) = target: T1, BRD4 (BDII_E352-M457) (Homo sapiens, UniProt O60885); assay: TR-FRET bromodomain binding assay, second bromodomain of BRD4; settings: 30 nM probe
T1 construct: protocol; made in house
Method: (§1) Bromodomain Domain Binding Assay
(§2) A time-resolved fluorescence resonance energy transfer (TR-FRET) assay was used to determine the affinities of compounds of the Examples listed in Table 1 for each bromodomain of BRD4. His-tagged first (BD1: amino acids K57-E168) and second (BD2: amino acids […]) bromodomains of BRD4 were expressed and purified. An Alexa647-labeled BET-inhibitor was used as the fluorescent probe in the assay.
(§3) Compound dilution series were prepared in DMSO via an approximately 3-fold serial dilution from one of the following: […]
(§4) Assay method E: 0.47 mM to 7.8 nM […]
(§5) Assay method G: 0.047 mM to 0.78 nM
(§6) or 5-fold serial dilution from one of the following: […]
(§7) Assay method B: 2.5 mM-797 nM […]
(§8) For Assay methods B, E, and G: Compound dilutions were added directly into white, low-volume assay plates (Perkin Elmer Proxiplate 384 Plus#6008280) using a Labcyte Echo in conjunction with Labcyte Access and Thermo Multidrop CombinL robotics. Compounds were then suspended in eight microliters (μL) of assay buffer (20 mM Sodium Phosphate, pH 6.0, 50 mM NaCl, 1 mM Ethylenediaminetetraacetic acid disodium salt dihydrate, 0.01% Triton X-100, 1 mM DL-Dithiothreitol) containing His-tagged bromodomain, Europium-conjugated anti-His antibody (Invitrogen PV5596) and Alexa-647-conjugated probe.
(§9) The final concentration of 1× assay mixture for assay methods A, B, C, D, E, F, and G contains 2% DMSO, 8 nM His-tagged bromodomain, 1 nM Europium-conjugated anti-His-tag antibody and 100 nM or 30 nM probe (for BDI or BDII, respectively) and compound concentration in the range of: 50 μM-16 nM for method A, 49.02 μM-15.63 nM for method B, 25 μM-423 pM for method C, 10 μM-169 pM for method D, 9.19 μM-150 pM for method E, 5 μM-85 pM for method F, and 0.92 μM-15 pM for method G.
(§10) After a one-hour equilibration at room temperature, TR-FRET ratios were determined using an Envision multilabel plate reader (Ex 340, Em 495/520).
(§11) TR-FRET data were normalized to the means of 24 no-compound controls (“high”) and 8 controls containing 1 μM un-labeled probe (“low”). Percent inhibition was plotted as a function of compound concentration and the data were fit with the 4 parameter logistic equation to obtain IC50s. Inhibition constants (Ki) were calculated from the IC50s, probe Kd and probe concentration. Typical Z′ values were between 0.65 and 0.75. The minimum significant ratio was determined to evaluate assay reproducibility (Eastwood et al., (2006) J Biomol Screen, 11: 253-261). The MSR was determined to be 2.03 for BDI and 1.93 for BDII, and a moving MSR (last six run MSR overtime) for both BDI and BDII was typically <3.

BRD4 (BDI_K57-E168) = target: T2, BRD4 (BDI_K57-E168) (Homo sapiens, UniProt O60885); assay: TR-FRET bromodomain binding assay, first bromodomain of BRD4; settings: 100 nM probe
T2 construct: BD1: amino acids K57-E168; made in house
Method: as §1, §2, §3, §4, §5, §6, §7, §8, §9, §10, §11

[1] = TR-FRET assay protocol G (compound 0.92 μM-15 pM)
[2] = TR-FRET assay protocol E (compound 9.19 μM-150 pM)

Row | Compound | Ki (BRD4 (BDII_E352-M457); [1]) [nM] | Ki (BRD4 (BDI_K57-E168); [1]) [nM] | Ki (BRD4 (BDII_E352-M457); [2]) [nM] | Ki (BRD4 (BDI_K57-E168); [2]) [nM]
1 | CCN1CCCC(CN2Cc3c[nH]c4c(=O)n(C)cc(c34)-c3cc(CS(C)(=O)=O)ccc32)C1 (stereo not shown) [Example 150, 4-((1-ethylpiperidin-3-yl)methyl)-10-methyl-7-((methylsulfonyl)methyl)-3,4-dihydro-1H-1,4,10-triazadibenzo[cd,f]azulen-11(10H)-one] | 10.8 | 4.05 |  | 
2 | Cn1cc2c3c(c[nH]c3c1=O)CN(C1CCC(N)CC1)c1ccc(S(C)(=O)=O)cc1-2 (stereo not drawn) [Example 171, 4-((trans)-4-aminocyclohexyl)-10-methyl-7-(methylsulfonyl)-3,4-dihydro-1H-1,4,10-triazadibenzo[cd,f]azulen-11(10H)-one] | 29.2 | 16.4 |  | 
3 | COC(=O)CC[C@H]1c2c[nH]c3c(=O)n(C)cc(c23)-c2cc(CS(C)(=O)=O)ccc2N1c1ccc(F)cc1F (single isomer, unassigned) [Example 269] | 0.92 | 5.69 |  | 
4 | COc1cccc(CNC(=O)N2Cc3c[nH]c4c(=O)n(C)cc(c34)-c3cc(CS(C)(=O)=O)ccc32)c1 [Example 65, N-(3-methoxybenzyl)-10-methyl-7-((methylsulfonyl)methyl)-11-oxo-10,11-dihydro-1H-1,4,10-triazadibenzo[cd,f]azulene-4(3H)-carboxamide] | 238 | > 238 |  | 
5 | Cn1cc2c3c(c[nH]c3c1=O)C(C(=O)NC1(CO)CC1)N(c1ccc(F)cc1F)c1ccc(CS(C)(=O)=O)cc1-2 (racemic) [Example 166, 4-(2,4-difluorophenyl)-N-(1-(hydroxymethyl)cyclopropyl)-10-methyl-7-((methylsulfonyl)methyl)-11-oxo-3,4,10,11-tetrahydro-1H-1,4,10-triazadibenzo[cd,f]azulene-3-carboxamide] | 73.3 | 60 |  | 
6 | COCCC(=O)N1Cc2c[nH]c3c(=O)n(C)cc(c23)-c2cc(CS(C)(=O)=O)ccc21 [Example 101, 4-(3-methoxypropanoyl)-10-methyl-7-((methylsulfonyl)methyl)-3,4-dihydro-1H-1,4,10-triazadibenzo[cd,f]azulen-11(10H)-one] | 2.77 | 4.83 |  | 
7 | COC(=O)CCC1c2c[nH]c3c(=O)n(C)cc(c23)-c2cc(CS(C)(=O)=O)ccc2N1c1ccc(F)cc1F [Example 268, (R)-methyl 3-(4-(2,4-difluorophenyl)-10-methyl-7-((methylsulfonyl)methyl)-11-oxo-3,4,10,11-tetrahydro-1H-1,4,10-triazadibenzo[cd,f]azulen-3-yl)propanoate] | 16.4 | 82.8 |  | 
8 | COC(=O)CCC1Nc2ccc(CS(C)(=O)=O)cc2-c2cn(C)c(=O)c3[nH]cc1c23 (racemic) [Example 17, methyl 3-(10-methyl-7-((methylsulfonyl)methyl)-11-oxo-3,4,10,11-tetrahydro-1H-1,4,10-triazadibenzo[cd,f]azulen-3-yl)propanoate] |  |  | 53.9 | 165
9 | Cn1cc2c3c(c[nH]c3c1=O)CN(CC1CCOC(C)(C)C1)c1ccc(CS(C)(=O)=O)cc1-2 (racemic) [Example 152, 4-((2,2-dimethyltetrahydro-2H-pyran-4-yl)methyl)-10-methyl-7-((methylsulfonyl)methyl)-3,4-dihydro-1H-1,4,10-triazadibenzo[cd,f]azulen-11(10H)-one] | 11 | 7.18 |  | 
10 | CCc1ccc(CCNC(=O)N2Cc3c[nH]c4c(=O)n(C)cc(c34)-c3cc(CS(C)(=O)=O)ccc32)cc1 [Example 63, N-(4-ethylphenethyl)-10-methyl-7-((methylsulfonyl)methyl)-11-oxo-10,11-dihydro-1H-1,4,10-triazadibenzo[cd,f]azulene-4(3H)-carboxamide] | 73.6 | 82.2 |  | 
11 | Cn1cc2c3c(c[nH]c3c1=O)CN(C(=O)c1ccc(F)cc1)c1ccc(CS(C)(=O)=O)cc1-2 [Example 100, 4-(4-fluorobenzoyl)-10-methyl-7-((methylsulfonyl)methyl)-3,4-dihydro-1H-1,4,10-triazadibenzo[cd,f]azulen-11(10H)-one] | 7.41 | 29.8 |  | 
12 | Cc1ccc(S(=O)(=O)N2Cc3c[nH]c4c(=O)n(C)cc(c34)-c3cc(CS(C)(=O)=O)ccc32)cc1 [Example 74, 10-methyl-7-((methylsulfonyl)methyl)-4-tosyl-3,4-dihydro-1H-1,4,10-triazadibenzo[cd,f]azulen-11(10H)-one] | 369 | > 238 |  | 
13 | N-(3-methoxypropyl)-10-methyl-7-((methylsulfonyl)methyl)-11-oxo-10,11-dihydro-1H-1,4,10-triazadibenzo[cd,f]azulene-4(3H)-carboxamide [Example 73] | 19.4 | 16.5 |  | 
14 | CN1CCC(N2Cc3c[nH]c4c(=O)n(C)cc(c34)-c3cc(CS(C)(=O)=O)ccc32)CC1 [Example 181] | 17.1 | 3.33 |  | 
15 | Cn1cc2c3c(c[nH]c3c1=O)C(C(=O)NCCCCc1ccccc1)N(c1ccc(F)cc1F)c1ccc(CS(C)(=O)=O)cc1-2 (stereo not shown) [Example 168, 4-(2,4-difluorophenyl)-10-methyl-7-((methylsulfonyl)methyl)-11-oxo-N-(4-phenylbutyl)-3,4,10,11-tetrahydro-1H-1,4,10-triazadibenzo[cd,f]azulene-3-carboxamide] | 124 | 93.2 |  | 
16 | COCCOC(=O)N1Cc2c[nH]c3c(=O)n(C)cc(c23)-c2cc(CS(C)(=O)=O)ccc21 [Example 86, 2-methoxyethyl 10-methyl-7-((methylsulfonyl)methyl)-11-oxo-10,11-dihydro-1H-1,4,10-triazadibenzo[cd,f]azulene-4(3H)-carboxylate] | 13.9 | 10.3 |  | 
17 | Cn1cc2c3c(c[nH]c3c1=O)CN(C(=O)c1ccccc1F)c1ccc(CS(C)(=O)=O)cc1-2 [Example 113, 4-(2-fluorobenzoyl)-10-methyl-7-((methylsulfonyl)methyl)-3,4-dihydro-1H-1,4,10-triazadibenzo[cd,f]azulen-11(10H)-one] | 10.9 | 85.6 |  | 
18 | Cn1cc2c3c(c[nH]c3c1=O)C(C(=O)NCCO)N(c1ccc(F)cc1F)c1ccc(CS(C)(=O)=O)cc1-2 (stereo not shown) [Example 162, 4-(2,4-difluorophenyl)-N-(2-hydroxyethyl)-10-methyl-7-((methylsulfonyl)methyl)-11-oxo-3,4,10,11-tetrahydro-1H-1,4,10-triazadibenzo[cd,f]azulene-3-carboxamide] | 60.4 | 47.1 |  | 
19 | CCCCCOC(=O)N1Cc2c[nH]c3c(=O)n(C)cc(c23)-c2cc(CS(C)(=O)=O)ccc21 [Example 88, pentyl 10-methyl-7-((methylsulfonyl)methyl)-11-oxo-10,11-dihydro-1H-1,4,10-triazadibenzo[cd,f]azulene-4(3H)-carboxylate] | 1.76 | 3.46 |  | 
20 | Cn1cc2c3c(c[nH]c3c1=O)CN(C(=O)CCC1CCCC1)c1ccc(CS(C)(=O)=O)cc1-2 [Example 103, 4-(3-cyclopentylpropanoyl)-10-methyl-7-((methylsulfonyl)methyl)-3,4-dihydro-1H-1,4,10-triazadibenzo[cd,f]azulen-11(10H)-one] | 4.71 | 8.12 |  | 
21 | Cn1cc2c3c(c[nH]c3c1=O)CNc1ccc(S(C)(=O)=O)cc1-2 [Example 4, 10-methyl-7-(methylsulfonyl)-3,4-dihydro-1H-1,4,10-triazadibenzo[cd,f]azulen-11(10H)-one] |  |  | 3090 | 2000
22 | 4-((1-isopropylpiperidin-4-yl)methyl)-10-methyl-7-((methylsulfonyl)methyl)-3,4-dihydro-1H-1,4,10-triazadibenzo[cd,f]azulen-11(10H)-one [Example 183] | 15.5 | 3.84 |  | 
23 | Cn1cc2c3c(c[nH]c3c1=O)C(C(=O)NC1(C)CC1)N(c1ccc(F)cc1F)c1ccc(CS(C)(=O)=O)cc1-2 (racemic) [Example 167, 4-(2,4-difluorophenyl)-10-methyl-N-(1-methylcyclopropyl)-7-((methylsulfonyl)methyl)-11-oxo-3,4,10,11-tetrahydro-1H-1,4,10-triazadibenzo[cd,f]azulene-3-carboxamide] | 76.3 | 69.2 |  | 
